# Reference: patent US20260085062A1, “NOVEL COMPOUNDS AS CK2 INHIBITORS” (Cambridge Enterprise Limited, priority 2022, published 2026)
# Legend:
# [1] = biological target: T1, intracellular CK2α (Homo sapiens, UniProt P19784); assay: Cell-based NanoBRET assay for inhibitor binding to intracellular CK2α; details: HCT116 cells transiently transfected with CSNK2A2-NanoLuc fusion vector; Tracer K-5; 2 h; read-out: Assay 3: NanoBRET ™ assay for binding to intracellular CK2α
# T1 construct: host or cells: HCT116 (ATCC CCL-247)
# T1 sequence (P19784 whole entry, the tested form may be a part): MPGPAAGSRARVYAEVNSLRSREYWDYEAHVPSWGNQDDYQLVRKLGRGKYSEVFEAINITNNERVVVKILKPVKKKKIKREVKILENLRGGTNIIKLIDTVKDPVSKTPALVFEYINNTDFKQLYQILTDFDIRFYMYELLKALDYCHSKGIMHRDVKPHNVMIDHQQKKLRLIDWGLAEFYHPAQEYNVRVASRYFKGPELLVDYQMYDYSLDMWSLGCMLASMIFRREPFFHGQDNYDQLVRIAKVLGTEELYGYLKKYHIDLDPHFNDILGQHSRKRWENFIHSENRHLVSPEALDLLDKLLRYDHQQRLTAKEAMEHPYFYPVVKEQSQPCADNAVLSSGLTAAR
# Procedure, shortened: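 Living cells expressing NanoLuc-CK2α fusion were given a fixed tracer concentration, and compounds competitively displaced the reversibly bound tracer. Donor (450 nm) and acceptor (610 or 630 nm) emissions were read; BRET ratio = (acceptor/donor)×1,000, giving apparent intracellular affinity.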
# [2] = biological target: T2, CLK2 (Homo sapiens, UniProt P49760); assay: Biochemical assay for inhibitors of CLK2 kinase activity (ADP-Glo); details: 20 nM CLK2, 50 μM peptide substrate, 100 μM ATP, read-out: Assay 2: CLK2 Enzyme IC50
# T2 construct: purchased Carna Biosciences 04-127
# T2 sequence (P49760 whole entry): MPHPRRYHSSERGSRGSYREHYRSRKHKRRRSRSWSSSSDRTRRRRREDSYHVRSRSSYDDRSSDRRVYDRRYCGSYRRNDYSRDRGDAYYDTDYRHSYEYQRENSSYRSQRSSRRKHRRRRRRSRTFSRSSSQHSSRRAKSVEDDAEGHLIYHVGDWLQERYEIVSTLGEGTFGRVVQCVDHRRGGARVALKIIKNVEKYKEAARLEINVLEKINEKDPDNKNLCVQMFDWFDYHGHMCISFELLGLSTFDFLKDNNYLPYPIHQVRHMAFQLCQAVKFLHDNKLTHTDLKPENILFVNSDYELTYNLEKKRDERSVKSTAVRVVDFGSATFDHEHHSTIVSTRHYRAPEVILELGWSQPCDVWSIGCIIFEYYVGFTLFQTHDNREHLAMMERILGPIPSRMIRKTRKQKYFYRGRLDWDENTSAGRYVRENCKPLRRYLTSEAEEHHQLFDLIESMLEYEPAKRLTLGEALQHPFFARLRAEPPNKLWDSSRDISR
# [3] = biological target: T3, CK2α (Homo sapiens, UniProt P68400); assay: Biochemical assay for inhibitors of CK2α kinase activity (ADP-Glo); details: 0.2 nM CK2α, 50 μM peptide substrate, 15 μM ATP, read-out: Assay 1: CK2α Enzyme IC50
# T3 construct: CK2α (residues 2-329) was produced in Escherichia coli BL21 (DE3) for kinase activity screening; His6 (N, cleaved yes); made in house; host or cells: Escherichia coli BL21 (DE3)
# T3 sequence (P68400 2-329): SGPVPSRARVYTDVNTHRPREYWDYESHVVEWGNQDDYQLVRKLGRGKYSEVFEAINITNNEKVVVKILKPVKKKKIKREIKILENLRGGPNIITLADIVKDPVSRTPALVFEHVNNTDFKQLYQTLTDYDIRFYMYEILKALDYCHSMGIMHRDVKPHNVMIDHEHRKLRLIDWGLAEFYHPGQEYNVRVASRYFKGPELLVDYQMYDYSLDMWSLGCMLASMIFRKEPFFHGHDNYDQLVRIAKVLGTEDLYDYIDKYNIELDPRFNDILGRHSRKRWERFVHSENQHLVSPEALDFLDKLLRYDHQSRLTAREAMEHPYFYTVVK
SMILES,IC50 [1] [nM],IC50 [2] [nM],IC50 [3] [nM]
"FC(F)(F)c1ccc2[nH]c(CNCCCCOCCOc3cc(-c4cnoc4)cc4[nH]ncc34)cc2c1 [Example 144, 4-(2-((6-(isoxazol-4-yl)-1H-indazol-4-yl)oxy)ethoxy)-N-((5-(trifluoromethyl)-1H-indol-2-yl)methyl)butan-1-amine]",347,271,4.72
"N#CCc1cc(CNCCCCOC2CN(c3cc(-c4cnoc4)cc4[nH]ncc34)C2)cc(C(F)(F)F)c1 [Example 145, 2-(3-(((4-((1-(6-(isoxazol-4-yl)-1H-indazol-4-yl)azetidin-3-yl)oxy)butyl)amino)methyl)-5-(trifluoromethyl)phenyl)acetonitrile]",1730,186,25.4
"N#CCc1cc(CNCCCCOC2CN(c3cc(-c4cnoc4)cc4[nH]ncc34)C2)cc(OC(F)(F)F)c1 [Example 146, 2-(3-(((4-((1-(6-(isoxazol-4-yl)-1H-indazol-4-yl)azetidin-3-yl)oxy)butyl)amino)methyl)-5-(trifluoromethoxy)phenyl)acetonitrile]",299,152,8.18
"N#CCc1cc(CNCCCCOC2CN(c3cc(-n4cnnc4)cc4[nH]ncc34)C2)cc(OC(F)(F)F)c1 [Example 147, 2-(3-(((4-((1-(6-(4H-1,2,4-triazol-4-yl)-1H-indazol-4-yl)azetidin-3-yl)oxy)butyl)amino)methyl)-5-(trifluoromethoxy)phenyl)acetonitrile]",528,300,8.8
"N#CCc1cc(CNCCCCOCCOc2cc(-n3cnnc3)cc3[nH]nnc23)cc(OC(F)(F)F)c1 [Example 148, 2-(3-(((4-(2-((6-(4H-1,2,4-triazol-4-yl)-1H-benzo[d][1,2,3]triazol-4-yl)oxy)ethoxy)butyl)amino)methyl)-5-(trifluoromethoxy)phenyl)acetonitrile]",> 50000,> 50000,138
"FC(F)(F)c1ccc2[nH]c(CNCCCCOC3CN(c4cc(-c5ccnnc5)cc5[nH]nnc45)C3)cc2c1 [Example 149, 4-((1-(6-(pyridazin-4-yl)-1H-benzo[d][1,2,3]triazol-4-yl)azetidin-3-yl)oxy)-N-((5-(trifluoromethyl)-1H-indol-2-yl)methyl)butan-1-amine]",> 50000,15300,255
"FC(F)(F)Oc1ccc(CNCCCCOC2CN(c3cc(-c4ccnnc4)cc4[nH]nnc34)C2)cc1Cl [Example 150, N-(3-chloro-4-(trifluoromethoxy)benzyl)-4-((1-(6-(pyridazin-4-yl)-1H-benzo[d][1,2,3]triazol-4-yl)azetidin-3-yl)oxy)butan-1-amine]",39300,17700,338
"N#CCc1cc(CNCCCCOC2CN(c3cc(-c4ccnnc4)cc4[nH]nnc34)C2)cc(OC(F)(F)F)c1 [Example 151, 2-(3-(((4-((1-(6-(pyridazin-4-yl)-1H-benzo[d][1,2,3]triazol-4-yl)azetidin-3-yl)oxy)butyl)amino)methyl)-5-(trifluoromethoxy)phenyl)acetonitrile]",19300,39800,187
"FC(F)(F)c1ccc2[nH]c(CNCCCCOC3CN(c4cc(-n5cnnc5)cc5[nH]nnc45)C3)cc2c1 [Example 152, 4-((1-(6-(4H-1,2,4-triazol-4-yl)-1H-benzo[d][1,2,3]triazol-4-yl)azetidin-3-yl)oxy)-N-((5-(trifluoromethyl)-1H-indol-2-yl)methyl)butan-1-amine]",> 50000,5820,49.7
"FC(F)(F)Oc1ccc(CNCCCCOC2CN(c3cc(-n4cnnc4)cc4[nH]nnc34)C2)cc1Cl [Example 153, 4-((1-(6-(4H-1,2,4-triazol-4-yl)-1H-benzo[d][1,2,3]triazol-4-yl)azetidin-3-yl)oxy)-N-(3-chloro-4-(trifluoromethoxy)benzyl)butan-1-amine]",34200,11600,136
"N#CCc1cc(CNCCCCOC2CN(c3cc(-n4cnnc4)cc4[nH]nnc34)C2)cc(OC(F)(F)F)c1 [Example 154, 2-(3-(((4-((1-(6-(4H-1,2,4-triazol-4-yl)-1H-benzo[d][1,2,3]triazol-4-yl)azetidin-3-yl)oxy)butyl)amino)methyl)-5-(trifluoromethoxy)phenyl)acetonitrile]",> 50000,24700,170
"N#Cc1[nH]ncc1-c1cc(NCCCNC(=O)CCNCc2ccc(OC(F)(F)F)c(Cl)c2)c2cn[nH]c2c1 [Example 156, 3-((3-chloro-4-(trifluoromethoxy)benzyl)amino)-N-(3-((6-(5-cyano-1H-pyrazol-4-yl)-1H-indazol-4-yl)amino)propyl)propanamide]",108,71,0.64
"O=C(CCNCc1ccc(OC(F)(F)F)c(Cl)c1)NCCCNc1cc(-c2nnco2)cc2[nH]ncc12 [Example 157, N-(3-((6-(1,3,4-oxadiazol-2-yl)-1H-indazol-4-yl)amino)propyl)-3-((3-chloro-4-(trifluoromethoxy)benzyl)amino)propanamide]",828,1650,9.06
"O=C(CCNCc1ccc(OC(F)(F)F)c(Cl)c1)NCCCNc1cc(-c2ccncc2)c(Cl)c2[nH]ncc12 [Example 158, 3-((3-chloro-4-(trifluoromethoxy)benzyl)amino)-N-(3-((7-chloro-6-(pyridin-4-yl)-1H-indazol-4-yl)amino)propyl)propanamide]",738,614,11
"Cc1[nH]ncc1-c1cc(NCCCNC(=O)CCNCc2ccc(OC(F)(F)F)c(Cl)c2)c2cn[nH]c2c1 [Example 159, 3-((3-chloro-4-(trifluoromethoxy)benzyl)amino)-N-(3-((6-(5-methyl-1H-pyrazol-4-yl)-1H-indazol-4-yl)amino)propyl)propanamide]",703,64.3,1.93
"N#Cc1cc(NCCCNC(=O)CCNCc2ccc(OC(F)(F)F)c(Cl)c2)c2cn[nH]c2c1 [Example 160, 3-((3-chloro-4-(trifluoromethoxy)benzyl)amino)-N-(3-((6-cyano-1H-indazol-4-yl)amino)propyl)propanamide]",1110,221,19.1
"O=C(CCNCc1ccc(OC(F)(F)F)c(Cl)c1)NCCCNc1cc(-n2ccnn2)cc2[nH]ncc12 [Example 161, N-(3-((6-(1H-1,2,3-triazol-1-yl)-1H-indazol-4-yl)amino)propyl)-3-((3-chloro-4-(trifluoromethoxy)benzyl)amino)propanamide]",193,667,2.02
"O=C(CCNCc1ccc(OC(F)(F)F)c(Cl)c1)NCCCNc1cc(-c2ccncc2F)cc2[nH]ncc12 [Example 162, 3-((3-chloro-4-(trifluoromethoxy)benzyl)amino)-N-(3-((6-(3-fluoropyridin-4-yl)-1H-indazol-4-yl)amino)propyl)propanamide]",402,807,6.53
"O=C(CCNCc1ccc(OC(F)(F)F)c(Cl)c1)NCCCNc1cccc2[nH]ncc12 [Example 163, N-(3-((1H-indazol-4-yl)amino)propyl)-3-((3-chloro-4-(trifluoromethoxy)benzyl)amino)propanamide]",26800,6570,217
